Experimental data: patent publication US10046001B2, “Compositions and methods for reducing intraocular pressure” (UNIVERSITY OF MIAMI, priority 2013, dated 2018)

What was measured:
[1] = tested on: DBA/2J mice; test: IOP lowering after topical application in DBA/2J mice; type: in vivo, mouse; conditions: DBA/2J mouse at 8 months, IOP ~35 mm of Hg, topical once daily up to 7 days
Procedure: The right eye was treated with vehicle alone and left eye treated with lipid. Control had both eyes treated with vehicle. A. In DBA/2J mice the indicated lipid in vehicle or control (vehicle only) were administered one daily at around 7.5 months of age in mice which were noted to have a IOP≥18 mm of Hg (20% increase from an average baseline of 15 mm of Hg was employed as treatment point). The average IOP recordings are shown for indicated lipids. B. A 10 picomole each of six PC (13:0/13:0; PE (18:0/18:0), Lyso-PS 18:0, PS 18:1, Sphinganine and C17S1P) were combined and applied as a topical dose once daily for up to 7 days on DBA/2J mouse eyes in 5% DMSO (vehicle). […] Transgenic myocillin mice [Tg-MYOC(Y437H)] subjected to a topical dose of indicated lipids as noted above (FIG. 5C). The IOP lowering compared to control was noted on day 4 and 6 as shown.
Intraocular pressure lowering in mouse models. The endogenous lipids lowered IOP in a DBA/2J mouse model of glaucoma (FIG. 5A). DBA/2J is the only known mouse animal where elevation of IOP occur spontaneously. Although this mouse also suffers from pigmentary dispersion, however, elevation of IOP appears not to correlate with […]. The lipids as indicated were applied as a topical dose (10 pmole in 5% DMSO as vehicle). The 5% DMSO only vehicle served as a control (FIG. 5A). […] A 10 picomole each of six PC (13:0/13:0; PE (18:0/18:0), Lyso-PS 18:0, PS 18:1, Sphinganine, and C17S1P) were combined and applied as a topical dose once daily for up to 7 days on DBA/2J mouse eyes in 5% DMSO (vehicle) (in other words, 10 picomoles of each PC was included). […] In addition to the DBA/2J model described here, these endogenous lipids lowered IOP in cochlin and connective tissue growth factor (CTGF) over-expression models. […] Thus the endogenous lipids assessed here lowered IOP in vastly different DBA/2J and MYOC(Y437H) mouse models as well as in cochlin and CTGF overexpression models covering a broad swath of four rodent glaucoma models that encompass induced as well as spontaneous IOP elevation.
Topical application of lipids and measurement of IOP: The lipids were topically applied as 1 μl drops with 10 pmole lipids. Pressure was measured with a tonolab (Colonial
Medical Supplies, N.H.) or with an assembled cannulation device, used in our laboratory. An initial assessment had utilized 10% DMSO as vehicle. However, all data reported here utilized 5% DMSO.

[2] = tested on: normotensive cynomolgus monkeys; test: IOP and slit lamp examination in normotensive cynomolgus monkeys after topical lipid; type: in vivo
Procedure: Lipids were topically administered in 1 μl volume around ˜1 pm in the afternoon. The right eye was treated with vehicle alone, and the left eye was treated with lipid. The cynomolgus monkeys (n=4) were treated with […] lipid (except C17S1P which was 50 nM) for 5 days. Monkeys were subjected to slit lamp examination and IOP measurement prior to and after treatment. The IOP measured 3-6 hours post-treatment on the fifth day of treatment is depicted as solid bars. The hollow bars are control (vehicle only (5% DMSO)).
Experimental design: The IOP-reducing activity of six lipids was tested in the eyes of cynomolgus monkeys (n=4 animals for each lipid). Baseline slit lamp biomicroscopic examination (SLE) and IOP for each group of animals was measured prior to topical application of lipids. The SLE and IOP were then measured at 3-6 hours posttreatment. One eye of each monkey received topical application with the lipid suspended in vehicle (1% dimethylsulfoxide (DMSO)), and the contralateral eye was treated with vehicle only. All topical applications contained 10 picomole of lipid (except C17S1P, which was 50 nM). […] The IOP was measured using a minified Goldmann applanation tonometer.

SMILES | lowering of IOP after elevation, short term application (FIG. 5B) [1] | IOP reduction ([2]; topical 10 picomole (C17S1P 50 nM), 5 days, IOP 3-6 hours post-treatment) | adverse side effects or toxicity ([2]; topical, slit lamp examination)
CCN[C@H]1C[C@H](C)S(=O)(=O)c2sc(S(N)(=O)=O)cc21 [Dorzolamide, reference compound] | same level of IOP reduction as Timolol |  | 
CCCCCCCCCCCCCCCCCC(=O)OC[C@@H](O)COP(=O)(O)OC[C@H](N)C(=O)O [PS18:0 Lyso-PS] |  | reduced IOP significantly | without additional adverse side effects or toxicity
